Measurements taken from the Deep4Chem optical property database.

Experiment: photoluminescence quantum yield (fraction); solvent given as SMILES

## CC1(C)CCc2c(c3ccccc3c3nc4c5c(c6ccccc6c4nc23)OC(C)(C)CC5)O1
In C1CCCCC1
  photoluminescence quantum yield: 0.38
In C1CCOC1
  photoluminescence quantum yield: 0.34
In C1COCCO1
  photoluminescence quantum yield: 0.26
In CC#N
  photoluminescence quantum yield: 0.61
In CC(C)O
  photoluminescence quantum yield: 0.53
In CCCCCC
  photoluminescence quantum yield: 0.31
In CN(C)C=O
  photoluminescence quantum yield: 0.57
In CO
  photoluminescence quantum yield: 0.62
In ClC(Cl)Cl
  photoluminescence quantum yield: 0.43
In c1ccccc1
  photoluminescence quantum yield: 0.42

## CCCCCCCCCCOc1ccc(C#Cc2cc3c(C#Cc4ccc(OCCCCCCCCCC)cc4)c(C#Cc4ccc(OCCCCCCCCCC)cc4)c4cc(C#Cc5ccc(OCCCCCCCCCC)cc5)cc5c(C#Cc6ccc(OCCCCCCCCCC)cc6)c(C#Cc6ccc(OCCCCCCCCCC)cc6)c(c2)c3c45)cc1
In ClCCl
  photoluminescence quantum yield: 0.44

## O=c1c2ccc(-c3ccc(N(c4ccccc4)c4ccccc4)cc3)cc2sc2cccc(-c3ccc(N(c4ccccc4)c4ccccc4)cc3)c12
In c1ccc2c(c1)c1ccccc1n2-c1ccc(-c2ccc(-n3c4ccccc4c4ccccc43)cc2)cc1
  photoluminescence quantum yield: 0.025

## CCCCCCC1(CCCCCC)c2cc(-c3nc(-c4ccc5c(c4)C(CCCCCC)(CCCCCC)c4cc(N6c7ccccc7Oc7ccccc76)ccc4-5)nc(-c4ccc5c(c4)C(CCCCCC)(CCCCCC)c4cc(N6c7ccccc7Oc7ccccc76)ccc4-5)n3)ccc2-c2ccc(N3c4ccccc4Oc4ccccc43)cc21
In C1CCOC1
  photoluminescence quantum yield: 0.02
In CCCCCC
  photoluminescence quantum yield: 0.52
In Cc1ccccc1
  photoluminescence quantum yield: 0.45
In ClCCl
  photoluminescence quantum yield: 0.01

## c1ccc([B-]23NC(C4CCCCC4)=Nc4cccc([n+]42)N=C(C2CCCCC2)N3)cc1
In ClCCl
  photoluminescence quantum yield: 0.1

## CC(C)[Si](C#Cc1c2ccccc2c(C#C[Si](C(C)C)(C(C)C)C(C)C)c2nc3c(nc12)Cc1ccccc1-3)(C(C)C)C(C)C
In CCCCCC
  photoluminescence quantum yield: 0.47

## COC(=O)c1nc2c(OCc3ccccc3)nc(N)nc2n1Cc1ccccc1
In C1COCCO1
  photoluminescence quantum yield: 0.95
In CC#N
  photoluminescence quantum yield: 0.87
In CO
  photoluminescence quantum yield: 0.92
In ClCCl
  photoluminescence quantum yield: 0.95

## Cc1cc(C)c(B(c2ccc(-n3c4ccccc4c4ccccc43)cc2)c2c(C)cc(C)cc2C)c(C)c1
In Cc1ccccc1
  photoluminescence quantum yield: 0.75

## CN(C)c1ccc(C(=Cc2ccc(C=O)cc2)c2ccc(N(C)C)cc2)cc1
In C1CCOC1
  photoluminescence quantum yield: 0.059

## CN1c2cc3nc4cc(Br)c(Br)cc4nc3cc2N(C)C1(C)C
In CCO
  photoluminescence quantum yield: 0.11

## COc1ccc2nc(N)n[n+]([O-])c2c1
In CC#N
  photoluminescence quantum yield: 0.472
In O
  photoluminescence quantum yield: 0.0868

## CCCC1(CCC)c2cc(-c3ccccc3)ccc2-c2ccc(-c3ccc4c(c3)C(CCC)(CCC)c3cc(-c5ccccc5)ccc3-4)cc21
In C1CCCCC1
  photoluminescence quantum yield: 1

## CN(C)c1ccc(-c2cccc3nsnc23)cc1
In ClCCl
  photoluminescence quantum yield: 0.47

## O=CC12N=N[C@](C=O)(C3C4CCC(C4)C31)C1[C@@H]3CC[C@@H](C3)[C@H]12 (stereo partly drawn)
In CC#N
  photoluminescence quantum yield: 0.049

## c1ccc(-n2nc(-c3ccc(-c4ccc5c(c4)C(c4ccccc4)(c4ccccc4)c4ccccc4-5)cc3)nc2-c2ccccn2)cc1
In ClCCl
  photoluminescence quantum yield: 0.158

## CCCCN(CCCC)c1ccc(/C=C/c2ccc3nc(/C=C/c4nc5ccc(/C=C/c6ccc(N(CCCC)CCCC)cc6)cc5n(CCC)c4=O)c(=O)n(CCC)c3c2)cc1
In C1COCCO1
  photoluminescence quantum yield: 0.18
In ClCCl
  photoluminescence quantum yield: 0.01

## Cn1cc(-c2nc3ccccc3nc2C#Cc2ccc(C#N)cc2)c2ccccc21
In ClCCl
  photoluminescence quantum yield: 0.15

## CN(C)c1ccc2nc(/C=C/c3ccccc3)c(=O)oc2c1
In C1CCCCC1
  photoluminescence quantum yield: 0.77
In C1COCCO1
  photoluminescence quantum yield: 0.79
In CC#N
  photoluminescence quantum yield: 0.54
In CC(C)=O
  photoluminescence quantum yield: 0.71
In CCCCCCC
  photoluminescence quantum yield: 0.74
In CCO
  photoluminescence quantum yield: 0.55
In CCOC(C)=O
  photoluminescence quantum yield: 0.75
In CN(C)C=O
  photoluminescence quantum yield: 0.66
In CS(C)=O
  photoluminescence quantum yield: 0.61
In Cc1ccccc1
  photoluminescence quantum yield: 0.77
In ClC(Cl)Cl
  photoluminescence quantum yield: 0.81
In ClCCl
  photoluminescence quantum yield: 0.81

## CCCCN1c2ccccc2Sc2cc(/C=C/C3=Nc4ccc5ccccc5c4C3(C)C)ccc21
In C1CCCCC1
  photoluminescence quantum yield: 0.09
In C1CCOC1
  photoluminescence quantum yield: 0.12
In C1COCCO1
  photoluminescence quantum yield: 0.17
In CC#N
  photoluminescence quantum yield: 0.05
In CC(C)=O
  photoluminescence quantum yield: 0.06
In CC(C)O
  photoluminescence quantum yield: 0.07
In CCOC(C)=O
  photoluminescence quantum yield: 0.13
In CCOCC
  photoluminescence quantum yield: 0.14
In CO
  photoluminescence quantum yield: 0.01
In CS(C)=O
  photoluminescence quantum yield: 0.09
In Cc1ccccc1
  photoluminescence quantum yield: 0.18
In ClCCl
  photoluminescence quantum yield: 0.11

## CC[N+](CC)=c1ccc2c(-c3ccccc3C(=O)O)c3cc4c(-c5ccccc5C(=O)O)c5ccc(=[N+](CC)CC)cc-5oc4cc3oc-2c1
In ClC(Cl)Cl
  photoluminescence quantum yield: 0.17

## COc1cc(/C=C/C(=O)CC(=O)/C=C/c2ccc(O)c(OC)c2)ccc1O
In C1CCCCC1
  photoluminescence quantum yield: 0.014
In CC#N
  photoluminescence quantum yield: 0.075
In CN(C)C=O
  photoluminescence quantum yield: 0.022
In CO
  photoluminescence quantum yield: 0.017
In CS(C)=O
  photoluminescence quantum yield: 0.024
In c1ccccc1
  photoluminescence quantum yield: 0.052

## O=C1c2cccc3c(-n4c5ccccc5c5ccccc54)ccc(c23)C(=O)N1C1CCCCC1
In C1CCOC1
  photoluminescence quantum yield: 0.033
In CCCCCC
  photoluminescence quantum yield: 0.872
In ClC(Cl)Cl
  photoluminescence quantum yield: 0.21
In ClCCl
  photoluminescence quantum yield: 0.03

## Cc1ccc(-c2cc(/C=C/c3ccc(N(c4ccccc4)c4ccccc4)cc3)c(C#N)c(N3CCCCC3)c2)cc1
In CS(C)=O
  photoluminescence quantum yield: 0.58

## CN(CC(O)c1cccc(O)c1)c1ccc([N+](=O)[O-])c(C2CC(c3cccc4ccccc34)=NN2c2ccccc2)c1 (stereo not drawn)
In C1CCCCC1
  photoluminescence quantum yield: 0.16
In C1CCOC1
  photoluminescence quantum yield: 0.27
In C1COCCO1
  photoluminescence quantum yield: 0.5
In CC#N
  photoluminescence quantum yield: 0.25
In CC(C)O
  photoluminescence quantum yield: 0.17
In CCOC(C)=O
  photoluminescence quantum yield: 0.25
In CCOCC
  photoluminescence quantum yield: 0.23
In CO
  photoluminescence quantum yield: 0.19
In Cc1ccccc1
  photoluminescence quantum yield: 0.18
In ClC(Cl)Cl
  photoluminescence quantum yield: 0.22
In O
  photoluminescence quantum yield: 0.16

## CN(C)c1ccc(/C=C/C=C2\CC/C(=C\c3ccc(N(C)C)cc3)C2=O)cc1
In C1CCOC1
  photoluminescence quantum yield: 0.16
In CC#N
  photoluminescence quantum yield: 0.29
In CC(C)=O
  photoluminescence quantum yield: 0.31
In CC(C)O
  photoluminescence quantum yield: 0.33
In CCCCCC
  photoluminescence quantum yield: 0.007
In CCCCO
  photoluminescence quantum yield: 0.36
In CCCCOC(C)=O
  photoluminescence quantum yield: 0.16
In CCCO
  photoluminescence quantum yield: 0.34
In CCO
  photoluminescence quantum yield: 0.23
In CCOC(=O)c1ccccc1
  photoluminescence quantum yield: 0.24
In CCOC(C)=O
  photoluminescence quantum yield: 0.2
In CCOCC
  photoluminescence quantum yield: 0.073
In CN(C)C=O
  photoluminescence quantum yield: 0.36
In CO
  photoluminescence quantum yield: 0.11
In CS(C)=O
  photoluminescence quantum yield: 0.4
In Cc1ccccc1
  photoluminescence quantum yield: 0.11
In ClC(Cl)(Cl)Cl
  photoluminescence quantum yield: 0.068
In ClC(Cl)Cl
  photoluminescence quantum yield: 0.27
In ClCCl
  photoluminescence quantum yield: 0.36
In Clc1ccccc1Cl
  photoluminescence quantum yield: 0.24
In S=C=S
  photoluminescence quantum yield: 0.13
In c1ccccc1
  photoluminescence quantum yield: 0.13
In c1ccncc1
  photoluminescence quantum yield: 0.38

## Cc1cn2cc(-c3ccccc3)[n-][n+]2c1
In ClCCl
  photoluminescence quantum yield: 0.074

## COC(=O)c1nc2c(N(C)C)nc(N(C)C)nc2n1Cc1ccccc1
In C1COCCO1
  photoluminescence quantum yield: 0.95
In CC#N
  photoluminescence quantum yield: 0.86
In CO
  photoluminescence quantum yield: 0.66
In ClCCl
  photoluminescence quantum yield: 0.9

## C[Si]1(C)O[Si](C)(C)c2cc3c(-c4ccc(F)cc4)c4ccccc4nc3cc21
In ClCCl
  photoluminescence quantum yield: 0.39

## C(#Cc1ccc(-n2c3ccccc3c3ccccc32)cc1)c1ccc(-c2nc(-c3ccc(C#Cc4ccc(-n5c6ccccc6c6ccccc65)cc4)cc3)nc(-c3ccc(C#Cc4ccc(-n5c6ccccc6c6ccccc65)cc4)cc3)n2)cc1
In C1CCOC1
  photoluminescence quantum yield: 0.69
In CC#N
  photoluminescence quantum yield: 0.02
In CCCCCC
  photoluminescence quantum yield: 0.94
In Cc1ccccc1
  photoluminescence quantum yield: 1
In ClCCl
  photoluminescence quantum yield: 0.67

## Cc1ccc2ccccc2c1
In C1CCCCC1
  photoluminescence quantum yield: 0.52

## O=C(c1ccc(N(c2ccccc2)c2ccccc2)cc1)[C@H]1[C@H](c2cccs2)C[C@](O)(c2ccccn2)C[C@]1(O)c1ccccn1
In C1CCOC1
  photoluminescence quantum yield: 0.24
In CC#N
  photoluminescence quantum yield: 0.01
In CCO
  photoluminescence quantum yield: 0.01
In CCOC(C)=O
  photoluminescence quantum yield: 0.35
In CN(C)C=O
  photoluminescence quantum yield: 0.02
In ClCCl
  photoluminescence quantum yield: 0.22
In c1ccccc1
  photoluminescence quantum yield: 0.9

## Cc1nc2cccc(-c3nc4ccc(Cl)cc4o3)c2c(=O)[nH]1
In CN(C)C=O
  photoluminescence quantum yield: 0.275

## CC1=[N+]2C(=C(c3c4ccccc4cc4ccccc34)c3ccc(/C=C/C(C)(C)C)n3[B-]2(F)F)C=C1
In ClC(Cl)Cl
  photoluminescence quantum yield: 0.32

## CC(C)(C)c1ccc2oc3nc4oc5ccc(-n6c7ccccc7c(=O)c7ccccc76)cc5c4cc3c2c1
In ClC(Cl)Cl
  photoluminescence quantum yield: 0.391

## CC(C)(C)c1ccc2c(c1)c1cc(C(C)(C)C)ccc1n2-c1cc(N2c3ccccc3C(c3ccccc3)(c3ccccc3)c3ccccc32)cc(-n2c3ccc(C(C)(C)C)cc3c3cc(C(C)(C)C)ccc32)c1C#N
In Cc1ccccc1
  photoluminescence quantum yield: 0.2

## Fc1ccc(N(c2ccc(F)cc2)c2ccc3c4cccc5c(N(c6ccc(F)cc6)c6ccc(F)cc6)ccc(c6cccc2c63)c54)cc1
In ClCCl
  photoluminescence quantum yield: 0.64

## CCOC(=O)c1ccc(C2=CC3=c4cc(-c5ccc(C(=O)OCC)cc5)c5nc(C(F)(F)C(F)(F)C(F)(F)F)nc6c(-c7ccc(C(=O)OCC)cc7)cc(c4c65)C4=CC(c5ccc(C(=O)OCC)cc5)=C5N=C(C(F)(F)C(F)(F)C(F)(F)F)N=C2C5C43)cc1 (stereo not drawn)
In C1CCOC1
  photoluminescence quantum yield: 0.79

## CC(C)(C)NC(=O)c1cc2ccccc2c2ccc3c4ccccc4c4ccccc4c3c12
In ClCCl
  photoluminescence quantum yield: 0.06

## O=c1oc2ccccc2c2cc(N3c4ccccc4Oc4ccccc43)ccc12
In c1cc(-c2cccc(-n3c4ccccc4c4ccccc43)c2)cc(-n2c3ccccc3c3ccccc32)c1
  photoluminescence quantum yield: 0.52

## CCCCC1(c2ccccc2)Nc2c(-c3ccc(N(C)C)cc3)ccc(-c3ccc(N(C)C)cc3)c2N=C1c1ccccc1 (stereo not drawn)
In ClC(Cl)Cl
  photoluminescence quantum yield: 0.16

## F[Si](c1ccccc1)(c1ccccc1)c1c2ccccc2cc2ccccc12
In C1CCOC1
  photoluminescence quantum yield: 0.86
In ClC(Cl)Cl
  photoluminescence quantum yield: 0.52

## Cc1cc(C2=Cc3cccc[n+]3[B-](F)(F)O2)ccc1N(C)C
In ClC(Cl)Cl
  photoluminescence quantum yield: 0.688

## COC(=O)C[C@H](Cc1c[nH]c2ccccc12)NC(=O)[C@H](CC(=O)N[C@@H](CC1=CCc2ccccc21)C(=O)OC)NC(=O)OC(C)(C)C
In CC#N
  photoluminescence quantum yield: 0.37
In CCOC(C)=O
  photoluminescence quantum yield: 0.22
In CO
  photoluminescence quantum yield: 0.06
